Experimental data: patent US11951108B2, “Combination therapy for treating cancer” (Epizyme, Inc., priority 2016, dated 2024)

Experiments:
[1] = test system: TOV21G; assay: In vitro combination study, ovarian cancer cell line TOV21G; assay type: cell-based; conditions: Homo sapiens, read-out: Tazemetostat % inhibition at 20 μM, 20 μM
[2] = test system: COV504; assay: cells; conditions: COV504, read-out: Tazemetostat % inhibition at 20 μM
[3] = test system: HCC1954; assay: In vitro combination study, breast cancer cell line HCC1954; assay type: cell-based
[4] = test system: ZR-75-1; assay: In vitro combination study, breast cancer cell line ZR-75-1
[5] = test system: MDA-MB-361; assay: In vitro combination study, breast cancer cell line MDA-MB-361; assay type: cell-based
[6] = test system: MDA-MB-453; assay: In vitro combination study, breast cancer cell line MDA-MB-453; assay type: cell-based; conditions: 10 μM
[7] = test system: HCC1143; assay: In vitro combination study, breast cancer cell line HCC1143; conditions: 10 μM
[8] = test system: MDA-MB-231; assay: In vitro combination study, breast cancer cell line MDA-MB-231; conditions: 10 μM
[9] = test system: COV362; assay: In vitro combination study, ovarian cancer cell line COV362; conditions: COV362, read-out: Tazemetostat % inhibition at 20 μM
[10] = test system: SUM52PE; assay: In vitro combination study, breast cancer cell line SUM52PE; conditions: 10 μM
[11] = test system: MCF-7; assay: In vitro combination study, breast cancer cell line MCF-7; assay type: cell-based
[12] = test system: OV-90; assay: In vitro combination study, ovarian cancer cell line OV-90; conditions: Homo sapiens, OV-90, read-out: Tazemetostat % inhibition at 20 μM
[13] = test system: CAOV-3; assay: In vitro combination study, ovarian cancer cell line CAOV-3; assay type: cell-based; conditions: Homo sapiens, read-out: Tazemetostat % inhibition at 20 μM, 20 μM
[14] = test system: OVMANA; assay: In vitro combination study, ovarian cancer cell line OVMANA; conditions: read-out: Tazemetostat % inhibition at 20 μM
[15] = test system: TOV112D; assay: In vitro combination study, ovarian cancer cell line TOV112D; conditions: 20 μM
[16] = test system: A2780; assay: In vitro combination study, ovarian cancer cell line A2780; conditions: Homo sapiens, A2780, read-out: Tazemetostat % inhibition at 20 μM
[17] = test system: EFM-19
[18] = test system: COV644*; assay: In vitro combination study, ovarian cancer cell line COV644; conditions: read-out: Tazemetostat % inhibition at 20 μM
[19] = test system: BT474; assay: In vitro combination study, breast cancer cell line BT474; conditions: 10 μM
[20] = test system: HCC202
[21] = test system: MDA-MB-468; assay: In vitro combination study, breast cancer cell line MDA-MB-468
[22] = test system: MDA-MB-157
[23] = test system: KURAMOCHI; assay: In vitro combination study, ovarian cancer cell line KURAMOCHI; conditions: read-out: Tazemetostat % inhibition at 20 μM
[24] = test system: HCC1569; assay: In vitro combination study, breast cancer cell line HCC1569
[25] = test system: HCC1419; assay: In vitro combination study, breast cancer cell line HCC1419; conditions: 10 μM
[26] = test system: HCC1395
[27] = test system: HCC38; conditions: HCC38; 10 μM
[28] = test system: SKOV3; assay: In vitro combination study, ovarian cancer cell line SKOV3; conditions: 20 μM
[29] = test system: RMUGS*; assay: In vitro combination study, ovarian cancer cell line RMUGS; conditions: 20 μM
[30] = test system: HCC1937; assay: In vitro combination study, breast cancer cell line HCC1937; conditions: 10 μM
[31] = test system: SUM159PT; assay: In vitro combination study, breast cancer cell line SUM159PT; conditions: 10 μM
[32] = test system: SUM149PT
[33] = test system: HCC70
[34] = test system: HCC1806; assay: In vitro combination study, breast cancer cell line HCC1806; assay type: cell-based
[35] = test system: SNU840; assay: In vitro combination study, ovarian cancer cell line SNU840; conditions: SNU-840, read-out: Tazemetostat % inhibition at 20 μM
[36] = test system: OVCAR-3; assay: In vitro combination study, ovarian cancer cell line OVCAR-3; assay type: cell-based; conditions: Homo sapiens, read-out: Tazemetostat % inhibition at 20 μM
[37] = test system: OAW42; assay: In vitro combination study, ovarian cancer cell line OAW42; conditions: Homo sapiens, OAW-42, read-out: Tazemetostat % inhibition at 20 μM
[38] = test system: TYK-NU; assay: In vitro combination study, ovarian cancer cell line TYK-NU; assay type: cell-based; conditions: read-out: Tazemetostat % inhibition at 20 μM
[39] = test system: BT549; assay: In vitro combination study, breast cancer cell line BT549; conditions: 10 μM
[40] = test system: HCC1187; assay: In vitro combination study, breast cancer cell line HCC1187; conditions: 10 μM
[41] = test system: MDA-MB-175VII; assay: In vitro combination study, breast cancer cell line MDA-MB-175VII; conditions: 10 μM
[42] = test system: SK-BR-3; assay: In vitro combination study, breast cancer cell line SK-BR-3; assay type: cell-based
[43] = test system: MDA-MB-436; assay: In vitro combination study, breast cancer cell line MDA-MB-436; assay type: cell-based
[44] = test system: BT-20; assay: In vitro combination study, breast cancer cell line BT-20; conditions: 10 μM
[45] = test system: JH)S-4; assay: In vitro combination study, ovarian cancer cell line JH)S-4; conditions: 20 μM
[46] = test system: COV434; assay: cells; conditions: COV434, read-out: Tazemetostat % inhibition at 20 μM
[47] = test system: CAMA-1; assay: In vitro combination study, breast cancer cell line CAMA-1; assay type: cell-based; conditions: 10 μM
[48] = test system: DU4475; assay: In vitro combination study, breast cancer cell line DU4475; conditions: 10 μM
[49] = test system: OVSAHO; assay: In vitro combination study, ovarian cancer cell line OVSAHO; conditions: Homo sapiens, read-out: Tazemetostat % inhibition at 20 μM
[50] = test system: ES-2; assay: In vitro combination study, ovarian cancer cell line ES-2; conditions: 20 μM
[51] = test system: SUM1315MO2; assay: In vitro combination study, breast cancer cell line SUM1315MO2; assay type: cell-based
[52] = test system: OVISE; assay: In vitro combination study, ovarian cancer cell line OVISE; conditions: read-out: Tazemetostat % inhibition at 20 μM

Question: How did the inhibition at 20 µM [1] turn out when CCN(c1cc(-c2ccc(CN3CCOCC3)cc2)cc(C(=O)NCc2c(C)cc(C)[nH]c2=O)c1C)C1CCOCC1 [Tazemetostat, tazemetostat] was run?
Answer: 40%

Question: What about the inhibition at 20 µM [2] of the same compound?
Answer: 30%

Question: And the “Tazemetostat sensitivity at 10 μM (%)” value [3]?
Answer: 0%

Question: And the “Tazemetostat sensitivity at 10 μM (%)” value [4]?
Answer: 40%

Question: What about the “Tazemetostat sensitivity at 10 μM (%)” value [5] of the same compound?
Answer: 10%

Question: And the “Tazemetostat sensitivity at 10 μM (%)” value [6]?
Answer: 40%

Question: What about the “Tazemetostat sensitivity at 10 μM (%)” value [7] of the same compound?
Answer: 0%

Question: And the “Tazemetostat sensitivity at 10 μM (%)” value [8]?
Answer: 0%

Question: And the inhibition at 20 µM [9]?
Answer: 0%

Question: And the “Tazemetostat sensitivity at 10 μM (%)” value [10]?
Answer: 50%

Question: What about the “Tazemetostat sensitivity at 10 μM (%)” value [11] of the same compound?
Answer: 50%

Question: And the inhibition at 20 µM [12]?
Answer: 15%

Question: And the inhibition at 20 µM [13]?
Answer: 0%

Question: What about the inhibition at 20 µM [14] of the same compound?
Answer: 20%

Question: What about the “Tazemetostat % inhibition at 20 μM” value [15] of the same compound?
Answer: 20%

Question: What about the inhibition at 20 µM [16] of the same compound?
Answer: 35%

Question: What about the “Tazemetostat sensitivity at 10 μM (%)” value [17] of the same compound?
Answer: 20%

Question: What about the inhibition at 20 µM [18] of the same compound?
Answer: 10%

Question: What about the “Tazemetostat sensitivity at 10 μM (%)” value [19] of the same compound?
Answer: 0%

Question: And the “Tazemetostat sensitivity at 10 μM (%)” value [20]?
Answer: 0%

Question: What about the “Tazemetostat sensitivity at 10 μM (%)” value [21] of the same compound?
Answer: 30%

Question: What about the “Tazemetostat sensitivity at 10 μM (%)” value [22] of the same compound?
Answer: 0%

Question: What about the inhibition at 20 µM [23] of the same compound?
Answer: 20%

Question: And the “Tazemetostat sensitivity at 10 μM (%)” value [24]?
Answer: 20%

Question: What about the “Tazemetostat sensitivity at 10 μM (%)” value [25] of the same compound?
Answer: 0%

Question: What about the “Tazemetostat sensitivity at 10 μM (%)” value [26] of the same compound?
Answer: 25%

Question: What about the “Tazemetostat sensitivity at 10 μM (%)” value [27] of the same compound?
Answer: 20%

Question: What about the “Tazemetostat % inhibition at 20 μM” value [28] of the same compound?
Answer: 15%

Question: And the “Tazemetostat % inhibition at 20 μM” value [29]?
Answer: −20%

Question: And the “Tazemetostat sensitivity at 10 μM (%)” value [30]?
Answer: 20%

Question: And the “Tazemetostat sensitivity at 10 μM (%)” value [31]?
Answer: 50%

Question: And the “Tazemetostat sensitivity at 10 μM (%)” value [32]?
Answer: 30%

Question: What about the “Tazemetostat sensitivity at 10 μM (%)” value [33] of the same compound?
Answer: 35%

Question: And the “Tazemetostat sensitivity at 10 μM (%)” value [34]?
Answer: 40%

Question: What about the inhibition at 20 µM [35] of the same compound?
Answer: 25%

Question: And the inhibition at 20 µM [36]?
Answer: 0%

Question: And the inhibition at 20 µM [37]?
Answer: 15%

Question: And the inhibition at 20 µM [38]?
Answer: 0%

Question: And the “Tazemetostat sensitivity at 10 μM (%)” value [39]?
Answer: 40%

Question: And the “Tazemetostat sensitivity at 10 μM (%)” value [40]?
Answer: 0%

Question: And the “Tazemetostat sensitivity at 10 μM (%)” value [41]?
Answer: 10%

Question: What about the “Tazemetostat sensitivity at 10 μM (%)” value [42] of the same compound?
Answer: 70%

Question: And the “Tazemetostat sensitivity at 10 μM (%)” value [43]?
Answer: 10%

Question: And the “Tazemetostat sensitivity at 10 μM (%)” value [44]?
Answer: 0%

Question: And the “Tazemetostat % inhibition at 20 μM” value [45]?
Answer: −20%

Question: And the inhibition at 20 µM [46]?
Answer: 50%

Question: What about the “Tazemetostat sensitivity at 10 μM (%)” value [47] of the same compound?
Answer: 30%

Question: What about the “Tazemetostat sensitivity at 10 μM (%)” value [48] of the same compound?
Answer: 35%

Question: And the inhibition at 20 µM [49]?
Answer: 0%

Question: What about the “Tazemetostat % inhibition at 20 μM” value [50] of the same compound?
Answer: 0%

Question: And the “Tazemetostat sensitivity at 10 μM (%)” value [51]?
Answer: 35%

Question: What about the inhibition at 20 µM [52] of the same compound?
Answer: 0%
